Entries after “also recorded” stand apart in the source; their conditions may differ. Read-outs that look alike come from different tables or passages of the source.
Experiments:
[1] = system: NK cells with trastuzumab-coated HER18 breast cancer cells; experiment: Trastuzumab-dependent NK cell degranulation (CD107a); type: cell-based, human; settings: trastuzumab-stimulated
[2] = system: GPVI platelet aggregation; experiment: GPVI (convulxin-induced) human platelet aggregation; type: cell-based
[3] = system: primary CLL cells; experiment: Rituximab ADCC, chromium release, primary CLL targets; type: cell-based, human; settings: 1 μM; NK cells from CLL patients, autologous CLL cells
[4] = system: KPC pancreatic tumors (KRAS, p53); experiment: KPC genetic pancreatic cancer model; type: in vivo, mouse
[5] = system: CD8 + T cells with B lymphoblast targets; experiment: Cytotoxic T cell (CTL) assay; type: cell-based; settings: 500 nM, relative to vehicle
[6] = system: KrasLA2 NSCLC tumors; experiment: KrasLA2 genetic NSCLC model; type: in vivo, mouse
[7] = system: CD4 + T cells; experiment: Th17 and Treg development of CD4+ T cells; type: cell-based
[8] = target: T1, Itk kinase (Homo sapiens, UniProt Q08881); experiment: Kinome screen, Itk; type: biochemical; settings: see Table 2 (missing)
T1 construct: Life Technologies (performed the screen, or the value is from the literature)

[9] = system: hepatocytes; experiment: Metabolism in hepatocytes with 14C-labeled Formula (II); type: in vitro ADME, mouse, rat, dog, rabbit, monkey, and human
[10] = system: ID8 ovarian cancer; experiment: ID8 syngeneic orthotopic ovarian cancer model; type: in vivo, mouse; settings: 15 mg/kg/BID oral
[11] = system: relapsed/refractory CLL; experiment: Clinical study of Formula (II) in relapsed/refractory CLL
[12] = system: NK cells (CD56+/CD107a+) with MEC-1 cells; experiment: Obinutuzumab-stimulated NK cell degranulation in whole blood; type: cell-based, human; settings: obinutuzumab 1 μg/mL; 0.1, 1, 10 μM
[13] = system: CD8 + T cells; experiment: CD8+ T cell IFN-γ levels; type: cell-based; settings: relative to vehicle
[14] = system: apoptotic B-CLL; experiment: Apoptosis of B-CLL cells in treated CLL patients; type: in vivo, human
[15] = system: EGF receptor phosphorylation (p-EGFR), A431 cells; experiment: In vitro EGFR phosphorylation in A431 cells; type: cell-based, human; settings: 10 μM
[16] = system: CXCL12 and CCL2; experiment: Plasma chemokines in treated CLL patients; type: in vivo, human
[17] = system: NK cells with rituximab-coated DHL4 lymphoma cells; experiment: Rituximab-dependent NK cell degranulation (CD107a); type: cell-based, human
[18] = In vivo metabolism in plasma, bile and urine; design: species or system rats, dogs, and monkeys; settings: bile, urine, preliminary
[19] = Brain and CSF pharmacokinetics in Sprague-Dawley rats; type: in vivo; settings: rat
[20] = target: T2, BTK (Mus musculus, UniProt P35991); experiment: BTK occupancy in MDSCs of tumor bearing PDA mice; type: in vivo; settings: 15 mg/kg BID, Day 8, 4 hours post dose, N=5
T2 construct: MDSCs were purified from tumor bearing PDA mice; from tissue; host or cells: granulocytic and monocytic MDSCs from tumor-bearing PDA mice

[21] = system: B cell receptor (CD69 on CD19+ B cells); experiment: Inhibition of BCR signaling (CD69) on B cells in whole blood; type: cell-based; settings: Homo sapiens, 18 h
[22] = Respiratory function study; type: in vivo, rats; settings: doses through 300 mg/kg
[23] = system: CD8 + T cells; experiment: CD8+ T cell viability; type: cell-based; settings: higher concentrations of ibrutinib; any concentration of Formula (II)
[24] = Functional observation battery; type: in vivo, rats; settings: doses through 300 mg/kg
[25] = system: rituximab-coated Raji cells; experiment: Rituximab ADCC, chromium release, Raji targets; type: cell-based, human; settings: 1 μM; healthy donor NK cells / Raji
[26] = system: NK cells with trastuzumab-coated HER18 breast cancer cells; experiment: Trastuzumab-dependent NK cell IFN-γ secretion; type: cell-based, human; settings: trastuzumab-stimulated
[27] = system: KPC derived mouse pancreatic cancer cells; experiment: KPC-derived mouse pancreatic cancer cells injected into pancreas, Formula (II) and/or gemcitabine; type: in vivo; settings: Formula (II) 15 mg/kg/BID oral; gemcitabine 15 mg/kg IV every 4 days x3
[28] = Glutathione binding in vitro; type: in vitro ADME
[29] = system: human platelet-mediated thrombosis; experiment: In vivo human platelet thrombus formation after laser injury in VWF HA1 mice; design: species or system human platelets in VWF HA1 mice
[30] = system: CYP enzymes; experiment: Nonclinical CYP interaction studies; type: in vitro ADME
[31] = system: KrasG12D;Trp53R172H;Pdx1-Cre (KPC) derived pancreatic tumor; experiment: Orthotopic pancreatic cancer model (KPC-derived cell line); type: in vivo, C57BL/6 mice; settings: oral 15 mg/kg
[32] = target: A3 adenosine receptor (Homo sapiens, UniProt P0DMS8)
[33] = target: CYP3A4 (Homo sapiens, UniProt P08684); experiment: CYP metabolism (loss of parent drug); type: in vitro ADME; settings: in vitro
[34] = system: PBMC subsets (MDSC, NK cells); experiment: Peripheral blood cell subsets in CLL patients by flow cytometry; type: in vivo, human; settings: C1D28, C2D28
[35] = Cardiovascular function study in telemeterized dogs; type: in vivo, male beagle dogs; settings: single doses through 30 mg/kg

T2 sequence (P35991 whole entry): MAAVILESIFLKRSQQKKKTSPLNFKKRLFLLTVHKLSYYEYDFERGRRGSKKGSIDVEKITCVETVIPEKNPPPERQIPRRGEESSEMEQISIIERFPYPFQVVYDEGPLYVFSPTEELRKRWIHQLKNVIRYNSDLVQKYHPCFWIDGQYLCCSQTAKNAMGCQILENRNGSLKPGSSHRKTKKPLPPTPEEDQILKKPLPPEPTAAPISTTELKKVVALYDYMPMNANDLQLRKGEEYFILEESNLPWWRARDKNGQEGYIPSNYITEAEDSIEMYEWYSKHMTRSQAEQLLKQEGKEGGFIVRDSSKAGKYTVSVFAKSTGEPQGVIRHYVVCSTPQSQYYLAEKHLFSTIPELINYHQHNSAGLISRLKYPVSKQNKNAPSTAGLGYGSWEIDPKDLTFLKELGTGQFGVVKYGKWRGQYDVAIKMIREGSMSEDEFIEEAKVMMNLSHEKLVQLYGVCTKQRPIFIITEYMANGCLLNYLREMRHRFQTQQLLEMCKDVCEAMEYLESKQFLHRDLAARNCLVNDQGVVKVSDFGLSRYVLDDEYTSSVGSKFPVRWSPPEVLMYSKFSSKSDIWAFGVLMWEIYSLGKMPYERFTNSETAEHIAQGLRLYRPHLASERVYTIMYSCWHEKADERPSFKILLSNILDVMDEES
Sequence of CYP3A4 (P08684 whole entry): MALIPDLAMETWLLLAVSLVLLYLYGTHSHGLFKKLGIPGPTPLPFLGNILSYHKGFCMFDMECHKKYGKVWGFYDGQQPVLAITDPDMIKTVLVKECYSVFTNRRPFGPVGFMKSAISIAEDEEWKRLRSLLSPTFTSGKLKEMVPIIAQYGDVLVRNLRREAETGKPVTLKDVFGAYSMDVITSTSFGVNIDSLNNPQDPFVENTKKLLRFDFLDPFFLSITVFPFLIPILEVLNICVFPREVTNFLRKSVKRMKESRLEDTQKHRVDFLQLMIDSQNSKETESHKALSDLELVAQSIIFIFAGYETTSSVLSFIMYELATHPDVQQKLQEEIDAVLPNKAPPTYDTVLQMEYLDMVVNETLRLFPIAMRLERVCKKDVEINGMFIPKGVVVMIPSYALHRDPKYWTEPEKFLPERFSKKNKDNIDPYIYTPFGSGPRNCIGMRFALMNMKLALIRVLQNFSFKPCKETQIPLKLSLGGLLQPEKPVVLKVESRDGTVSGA
Sequence of A3 adenosine receptor (P0DMS8 whole entry): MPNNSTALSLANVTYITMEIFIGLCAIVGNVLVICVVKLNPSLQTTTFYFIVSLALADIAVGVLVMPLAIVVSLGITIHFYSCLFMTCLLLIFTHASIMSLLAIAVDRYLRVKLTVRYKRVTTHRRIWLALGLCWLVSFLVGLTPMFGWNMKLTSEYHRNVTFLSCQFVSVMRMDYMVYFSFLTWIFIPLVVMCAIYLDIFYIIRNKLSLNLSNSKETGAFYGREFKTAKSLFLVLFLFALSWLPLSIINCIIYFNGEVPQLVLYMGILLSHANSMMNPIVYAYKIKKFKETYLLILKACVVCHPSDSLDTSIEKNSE
T1 sequence (Q08881 whole entry): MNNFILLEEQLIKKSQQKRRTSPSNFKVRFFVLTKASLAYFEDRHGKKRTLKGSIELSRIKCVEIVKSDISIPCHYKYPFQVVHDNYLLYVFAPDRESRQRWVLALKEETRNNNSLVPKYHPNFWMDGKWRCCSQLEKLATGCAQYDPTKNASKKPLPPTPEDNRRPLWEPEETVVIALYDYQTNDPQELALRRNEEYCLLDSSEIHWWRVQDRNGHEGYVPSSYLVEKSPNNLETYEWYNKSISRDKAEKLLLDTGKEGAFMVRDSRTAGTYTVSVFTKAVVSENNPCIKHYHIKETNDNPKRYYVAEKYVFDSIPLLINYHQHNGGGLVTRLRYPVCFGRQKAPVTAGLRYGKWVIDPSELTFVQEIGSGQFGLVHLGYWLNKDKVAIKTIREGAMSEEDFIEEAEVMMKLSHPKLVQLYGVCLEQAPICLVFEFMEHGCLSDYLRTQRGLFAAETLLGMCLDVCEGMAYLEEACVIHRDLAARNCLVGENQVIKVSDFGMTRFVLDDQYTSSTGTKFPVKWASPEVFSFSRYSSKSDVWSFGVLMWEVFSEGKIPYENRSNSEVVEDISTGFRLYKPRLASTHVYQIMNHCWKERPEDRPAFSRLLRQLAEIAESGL

CC#CC(=O)N1CCC[C@H]1c1nc(-c2ccc(C(=O)Nc3ccccn3)cc2)c2c(N)nccn12 [Formula (II), (<S)-4-(8-amino-3-(l-(but-2-ynoyl)pyrrolidin-2-yl)imidazo[l,5-a]pyrazin-l-yl)-N-(pyridin-2-yl)benzamide]
NK cell degranulation (in words) [1]: no inhibitory effect | inhibition of GPVI platelet aggregation (in words) [2]: does not | IC50 ([2]; Homo sapiens, Platelet, read-out: IC50, GPVI platelet aggregation): 1150 nM | inhibition of rituximab ADCC (in words) [3]: not inhibited | survival at day 14 ([4]; 15 mg/kg BID oral): 6/6 | survival at day 28 ([4]; 15 mg/kg BID oral): 5/6 | tumor growth and survival (in words) ([4]; 15 mg/kg BID oral, combination with gemcitabine 50 mg/kg IV): substantially slowed pancreatic cancer growth and increased animal survival; also recorded: compared favorably with gemcitabine alone | tumor volume, day 28, average ([4]; 15 mg/kg BID oral, predose 165): 272 mm3 | CD8+ cells (in words) ([4]; tumor tissue): significant increase in CD8 + cells | MDSCs (Gr1+Ly6CHi) (in words) ([4]; tumor tissue): significantly reduced | TAMs (CD11b+Ly6ClowF4/80+Csf1r+) (in words) ([4]; tumor tissue): significantly reduced | Tregs (CD4+CD25+FoxP3+) (in words) ([4]; tumor tissue): significantly reduced | CD8+ T cell function as % cytotoxicity (in words) [5]: no effect on CD8 + T cell function | number of tumors (in words) ([6]; 15 mg/kg): fewer overall tumors | tumor volumes vs vehicle (in words) ([6]; 15 mg/kg): significant decrease in tumor volumes | MDSCs (in words) ([6]; mouse, in vivo): significant reduction in immunosuppressive tumor associated MDSCs | TAMs (in words) ([6]; mouse, in vivo): significant reduction in immunosuppressive tumor associated TAMs | Tregs (in words) ([6]; mouse, in vivo): significant reduction in immunosuppressive tumor associated Tregs | Th17 development (in words) [7]: no adverse effects | Treg development (in words) [7]: no adverse effects | inhibition of Itk (in words) [8]: not a potent inhibitor of Itk kinase | metabolites in hepatocytes (in words) [9]: two mono-oxidized metabolites and a glutathione conjugate; also recorded: No unique human metabolite was identified | B cells (in words) [10]: significant reduction in total B cells; also recorded: significant reduction in immunosuppressive B cells | B regulatory cells (Bregs) (in words) [10]: significant reduction in B regulatory cells (Bregs) | CD8+ T cells (in words) [10]: increase in CD8 + T cells | ID8 ovarian cancer growth (in words) [10]: impairs ID8 ovarian cancer growth | tumor associated Tregs (in words) [10]: significant reduction in immunosuppressive tumor associated Tregs | tumor-associated lymphocytes (in words) [10]: significant reduction in immunosuppressive tumor-associated lymphocytes | time to same median % change in SPD ([11]; CLL, compared with ibrutinib): 7 months | SPD change vs ibrutinib (in words) ([11]; FIG. 37): decreases more rapidly | absolute lymphocyte count (ALC) change vs ibrutinib (in words) ([11]; FIG. 37): much smaller relative increase and much faster decrease in absolute lymphocyte count (ALC) | adverse event grade (in words) ([11]; human, in vivo): only grade 1 AEs were observed | disease progression in 17p deletion patients (in words) ([11]; human, in vivo): no 17p patients have progressed | dose-limiting toxicities (in words) ([11]; human, in vivo): No DLTs were observed; also recorded: has not demonstrated any DLTs to date | lymphocytosis (in words) ([11]; human, in vivo): A lack of lymphocytosis | treatment-related serious adverse events (in words) ([11]; human, in vivo): No treatment-related serious adverse events (SAEs) were observed | obinutuzumab-stimulated NK cell degranulation (in words) [12]: minimal effect | CD8+ T cell function as IFN-γ level (in words) [13]: no effect on CD8 + T cell function | samples with baseline change in apoptosis greater than 25% ([14]; cleaved PARP+, Caspase 3+, CD19+, CD5+): 82 % of samples | apoptosis of B-CLL (in words) ([14]; human, in vivo): increased apoptotis | inhibition of EGFR phosphorylation (in words) ([15]; A431): no inhibition | EGF-induced p-EGFR inhibition ([15]; 2 h, EGF 100 ng/mL 5 min): 7% | CCL2 levels (in words) [16]: significant decrease | CXCL12 levels (in words) [16]: significant decrease | reduction of NK cell degranulation ([17]; rituximab-stimulated, 240 min): < 2% | NK cell degranulation (in words) ([17]; rituximab, Formula (II) 1 μM): did not inhibit | metabolic processes in vivo (in words) [18]: oxidation, glutathione binding, and hydrolysis | Kp at 0.5 h ([19]; brain, flushed brains, 5 or 30 mg/kg/day oral gavage, 30 min after dosing, read-out: brain concentration relative to matched plasma): 0.03 to 0.04 | Kp at 0.5 h ([19]; csf, 5 and 30 mg/kg/day oral gavage, read-out: CSF concentration relative to plasma): 0.01 to 0.02 | levels in brain and CSF (in words) ([19]; in vivo): crosses the blood-brain barrier; also recorded: low but detectable levels | BTK occupancy in granulocytic and monocytic MDSC (in words) [20]: Complete BTK occupancy | EC50 [21]: 8.2 nM | respiratory function (in words) [22]: no treatment-related adverse effects | CD8+ T cell viability (in words) [23]: not observed | neurobehavioral effects / body temperature (in words) [24]: no adverse effects on neurobehavioral effects or body temperature | inhibition of rituximab ADCC (in words) [25]: not inhibited | NK cell cytokine release (in words) [26]: no inhibitory effect | reduction in tumor size (in words) [27]: efficacy alone | glutathione binding (in words) [28]: binds to glutathione but does not deplete glutathione | effect on thrombus formation (in words) [29]: does not interfere with thrombus formation; also recorded: no significant effect on human platelet-mediated thrombus formation | CYP drug-drug interaction potential (in words) [30]: very unlikely to cause clinical drug-drug interactions | immature myeloid infiltrate (in words) [31]: decreased immature myeloid infiltrate | immunosuppressive tumor associated myeloid cells and Tregs (in words) [31]: reduce immunosuppressive tumor associated myeloid cells and Tregs | number of Tregs (in words) [31]: reduced the number of immunospressive Tregs | number of tumor associated macrophages (in words) [31]: reduced the number of tumor associated macrophages | tumor burden (in words) [31]: significantly reduced tumor burden | tumor volume (in words) ([31]; vs vehicle): statistically significant reductions in tumor volume | activity in 80-target binding screen (in words) [32]: significant activity only against the A3 adenosine receptor | CYP metabolism (in words) [33]: metabolized by CYP3A4 | MDSC (monocytic) change vs ALC (in words) [34]: patients with decreasing ALC % had increasing MDSC (monocytic) % | NK cell change vs ALC (in words) [34]: patients with decreasing ALC % had increasing NK cell % | cardiovascular/ECG/body temperature (in words) [35]: no meaningful changes in body temperature, cardiovascular, or electrocardiographic (ECG) (including QT interval) parameters

From patent WO2016087994A1, “Btk inhibitors to treat solid tumors through modulation of the tumor microenvironment” (dated 2016)
